Activity calls are given as the source filed them. The calls are words filed in the database; no cut-off is given here.

For assay [1], the system named is Acinetobacter baumannii. Put plainly: Antibiofilm activity against Acinetobacter baumannii assessed as inhibition of biofilm formation at 50 uM incubated for 24 hrs at stationary condition by crystal violet staining based assay relative to control. The assay is classed as functional.
For assay [2], the system named is Acinetobacter baumannii. Briefly: Antibiofilm activity against Acinetobacter baumannii assessed as inhibition of planktonic growth at 300 uM. The assay is classed as functional, organism-based.
In assay [3] the test system is Acinetobacter baumannii. Put plainly: Antibiofilm activity against drug-resistant Acinetobacter baumannii 1925052 assessed as inhibition of biofilm formation at 50 uM incubated for 24 hrs at stationary condition by crystal violet staining based assay relative to control. The assay is classed as functional.
In another assay the test system is Escherichia coli. Put plainly: Antibiofilm activity against Escherichia coli assessed as inhibition of biofilm formation at 50 uM incubated for 24 hrs at stationary condition by crystal violet staining based assay relative to control. The following applies: DH5[alpha]. It counts as functional.
Another assay relates to Pseudomonas aeruginosa. Put plainly: Antibiofilm activity against Pseudomonas aeruginosa ATCC 27853 assessed as inhibition of biofilm formation at 50 uM incubated for 24 hrs at stationary condition by crystal violet staining based assay relative to control. It counts as functional.
The subject of assay [4] is Acinetobacter baumannii. Put plainly: Antibacterial activity against Acinetobacter baumannii assessed as reduction in motility at 50 uM after 24 hrs photographic-based method. It counts as functional, organism-based.
Assay [5] deals with Acinetobacter baumannii. Briefly: Induction of morphological changes in Acinetobacter baumannii biofilm inhibition assessed as reduction in extracellular polysaccharide at 10 uL preincubated for 24 hrs followed by incubating in dark for 1 hr by optical density based plate reader assay relative to control. The assay is classed as functional. On the set-up: scale not given: the % may be the effect or the level left.

Assay [6] deals with Acinetobacter baumannii. Put plainly: Antibacterial activity against Acinetobacter baumannii S1 incubated for 24 hrs by checkerboard titration assay. It counts as functional.
The test system of assay [7] is Acinetobacter baumannii. Put plainly: Synergistic antibacterial activity against Acinetobacter baumannii S1 incubated for 24 hrs in presence of gentamycin sulfate by checkerboard titration assay. The assay is classed as functional.
The test system of assay [8] is Acinetobacter baumannii. Briefly: Synergistic antibacterial activity against Acinetobacter baumannii S1 assessed as FIC incubated for 24 hrs in presence of gentamycin sulfate by checkerboard titration assay. It counts as functional.
In assay [9] the test system is Acinetobacter baumannii. Put plainly: Synergistic antibacterial activity against Acinetobacter baumannii S1 assessed as FICI incubated for 24 hrs in presence of gentamycin sulfate by checkerboard titration assay. The assay is classed as functional.
The subject of assay [10] is Acinetobacter baumannii. Briefly: Antibacterial activity against Acinetobacter baumannii assessed as bacterial death at 50 uM incubated for 15 mins by SYTO9 and PI staining based fluorescence microscopic method. The assay is classed as functional, organism-based.
Assay [11] deals with Acinetobacter baumannii. Put plainly: Synergistic antibacterial activity against Acinetobacter baumannii S1 assessed as FIC incubated for 24 hrs in presence of 3-hydroxy-2-isopropyl-1-octyl-2,3-dihydroquinazolin-4(1H)-one by checkerboard titration assay. The assay is classed as functional.
Assay [12] relates to Acinetobacter baumannii. Briefly: Synergistic antibacterial activity against Acinetobacter baumannii S1 assessed as FIC incubated for 24 hrs in presence of 1-(3-chlorobenzyl)-3-hydroxy-2-(2-hydroxyphenyl)-2,3-dihydroquinazolin-4(1H)-one by checkerboard titration assay. It counts as functional.

Regarding `N#Cc1ccccc1CN1c2ccccc2C(=O)N(O)C1c1ccccc1O` (stereo not given), the inhibition at 50 µM in the assay with Acinetobacter baumannii [1] was determined as 17.6%. In addition, the inhibition entry in the assay with Acinetobacter baumannii [2] was “inactive”.

In the case of `CCCCCCCCN1c2ccccc2C(=O)N(O)C1c1ccc(OC)cc1` (stereo not given), the inhibition at 50 µM with Acinetobacter baumannii [1] came out at 1.3%. The inhibition result with Acinetobacter baumannii [2] is “inactive”.

On to `CCCCN1c2ccccc2C(=O)N(O)C1c1ccccc1O` (stereo not given), for which the inhibition at 50 µM in the assay on Acinetobacter baumannii [1] came to 29.7%. The inhibition result in the assay on Acinetobacter baumannii [2] was “inactive”.

`O=C(Cc1cccc(Br)c1)N[C@H]1CCOC1=O`: the inhibition at 50 µM in the assay on Acinetobacter baumannii [1] was 7.9%; in the assay with Acinetobacter baumannii [3], 28.2%; in the assay on Escherichia coli, 50.1%; in the assay with Pseudomonas aeruginosa, -1.72%.

In the case of `CCCCCCCCCCCCCCN1c2ccccc2C(=O)N(O)C1c1ccccc1O` (stereo not given), in the assay on Acinetobacter baumannii [1], the inhibition at 50 µM was found to be 20.9%. Further, in the assay on Acinetobacter baumannii [2], the inhibition entry was “inactive”.

For the molecule `CCCCCCCCN1c2ccccc2C(=O)N(O)C1c1ccccc1O` (stereo not given), in the assay with Acinetobacter baumannii [1], the inhibition at 50 µM was determined as 23.5%. Further, in the assay on Acinetobacter baumannii [2], the inhibition result was “inactive”.

For the molecule `CCC/C=C/C1N(O)C(=O)c2ccccc2N1CCCCCCCC` (stereo not given), in the assay with Acinetobacter baumannii [1], the inhibition at 50 µM was 2.4%. Besides, the inhibition result with Acinetobacter baumannii [2] was “inactive”.

As to `O=C1c2ccccc2NC(c2ccccc2O)N1O` (stereo not given), the inhibition at 50 µM with Acinetobacter baumannii [1] stood at 16.3%. The inhibition result in the assay on Acinetobacter baumannii [2] was “inactive”.

Take `CCCCCCCCCCCCCCCCN1c2ccccc2C(=O)N(O)C1c1ccccc1O` (stereo not given): the inhibition at 50 µM with Acinetobacter baumannii [1] stood at 4.7%. In addition, the inhibition entry in the assay with Acinetobacter baumannii [2] was “inactive”.

On to `CCCCCCN1c2ccccc2C(=O)N(O)C1c1ccccc1O` (stereo not given), for which the inhibition at 50 µM in the assay on Acinetobacter baumannii [1] turned out to be 7.7%. Also, the inhibition result with Acinetobacter baumannii [2] is “inactive”.

In the case of `O=C1c2ccccc2N(Cc2cccc(Cl)c2)C(c2ccccc2O)N1O` (stereo not given), the inhibition at 50 µM with Acinetobacter baumannii [1] was found to be 34.1%; in the assay on Acinetobacter baumannii [3], 38.2%; in the assay with Escherichia coli, 27.5%; in the assay on Pseudomonas aeruginosa it was 55.4%. For the same molecule, in the assay with Acinetobacter baumannii [2], the inhibition result was “inactive”. The outcome in the assay with Acinetobacter baumannii [4] was Active. For the same molecule, the Activity in the assay with Acinetobacter baumannii [5] was 34%. In addition, the minimum inhibitory concentration (MIC) with Acinetobacter baumannii [6] is 1020 µg/mL; with Acinetobacter baumannii [7], 2 µg/mL. The Ratio in the assay with Acinetobacter baumannii [8] came out at 0.002. Moreover, the “fractional inhibitory concentration index (FICI)” value in the assay with Acinetobacter baumannii [9] was found to be 0.252.

Turning to `CCCCCCCCCCCCN1c2ccccc2C(=O)N(O)C1c1ccccc1O` (stereo not given), the inhibition at 50 µM in the assay with Acinetobacter baumannii [1] is 8.9%. For the same molecule, the inhibition result with Acinetobacter baumannii [2] is “inactive”.

On to `CCCCCCCCN1c2ccccc2C(=O)N(O)C1C(C)C` (stereo not given), for which the inhibition at 50 µM in the assay with Acinetobacter baumannii [1] amounted to 10.2%. The inhibition result in the assay on Acinetobacter baumannii [2] is “inactive”. Moreover, the outcome in the assay on Acinetobacter baumannii [10] was inactive.

For the molecule `CCCCCCCCN1c2ccccc2C(=O)N(O)C1c1ccccc1Cl` (stereo not given), the inhibition at 50 µM in the assay on Acinetobacter baumannii [1] turned out to be 8.1%. The inhibition result in the assay with Acinetobacter baumannii [2] was “inactive”.

`O=C1c2ccccc2N(Cc2ccccc2)C(c2ccccc2O)N1O` (stereo not given): in the assay with Acinetobacter baumannii [1], the inhibition at 50 µM was found to be 17.5%. Besides, the inhibition result with Acinetobacter baumannii [2] is “inactive”.

As to `CN1c2ccccc2C(=O)N(O)C1c1ccccc1O` (stereo not given), in the assay on Acinetobacter baumannii [1], the inhibition at 50 µM worked out at 14.6%. For the same molecule, the inhibition entry in the assay with Acinetobacter baumannii [2] was “inactive”.

As to `CCCCCCCCCCN1c2ccccc2C(=O)N(O)C1c1ccccc1O` (stereo not given), the inhibition at 50 µM in the assay with Acinetobacter baumannii [1] amounted to 30.7%; with Acinetobacter baumannii [3], 43.4%; with Escherichia coli it was 40.8%; with Pseudomonas aeruginosa, 44.5%. Moreover, the inhibition entry with Acinetobacter baumannii [2] was “inactive”. Also, the result with Acinetobacter baumannii [4] was Active. In addition, the Activity with Acinetobacter baumannii [5] turned out to be 31%. For the same molecule, the MIC in the assay on Acinetobacter baumannii [6] turned out to be 1020 µg/mL; in the assay on Acinetobacter baumannii [7], 2 µg/mL. For the same molecule, the Ratio in the assay with Acinetobacter baumannii [8] turned out to be 0.002. In addition, the “fractional inhibitory concentration index (FICI)” value in the assay on Acinetobacter baumannii [9] is recorded as 0.252.

As to `CCCCCCCCN1c2ccccc2C(=O)N(O)C1c1ccccc1OC` (stereo not given), in the assay on Acinetobacter baumannii [1], the inhibition at 50 µM came to 7.2%. For the same molecule, the inhibition result with Acinetobacter baumannii [2] was “inactive”.

In the case of `CCCCCCCCN1c2ccccc2C(=O)N(O)C1c1ccc(Cl)cc1` (stereo not given), in the assay with Acinetobacter baumannii [1], the inhibition at 50 µM was 5.2%. Also, the inhibition result in the assay with Acinetobacter baumannii [2] was “inactive”.

Consider `CN[C@@H]1[C@@H](O)[C@@H](O[C@@H]2[C@@H](O)[C@H](O[C@H]3O[C@H]([C@@H](C)NC)CC[C@H]3N)[C@@H](N)C[C@H]2N)OC[C@]1(C)O.O=S(=O)(O)O`, for which the MIC in the assay with Acinetobacter baumannii [6] came out at 0.25 µg/mL. In addition, the FIC in the assay on Acinetobacter baumannii [11] and in the assay on Acinetobacter baumannii [12] was 0.25 each time.

For the molecule `O=C1c2ccccc2N(Cc2cccc(F)c2)C(c2ccccc2O)N1O` (stereo not given), the inhibition at 50 µM with Acinetobacter baumannii [1] was determined as 27.5%. In addition, the inhibition entry in the assay with Acinetobacter baumannii [2] is “inactive”.

For `CCCCCCCCN1c2ccccc2C(=O)N(O)C1c1ccccc1` (stereo not given), the inhibition at 50 µM in the assay with Acinetobacter baumannii [1] was 5.5%. Moreover, the inhibition entry in the assay on Acinetobacter baumannii [2] was “inactive”.

Take `CCCCCCCCN1c2ccccc2C(=O)N(O)C1c1ccc(O)cc1` (stereo not given): the inhibition at 50 µM in the assay with Acinetobacter baumannii [1] amounted to 13.3%. In the assay on Acinetobacter baumannii [2], the inhibition result is “inactive”.

Consider `CCCCCCCCN1c2ccccc2C(=O)N(O)C1c1ccc(C)cc1` (stereo not given), for which the inhibition at 50 µM with Acinetobacter baumannii [1] was determined as 9.2%. The inhibition entry in the assay with Acinetobacter baumannii [2] was “inactive”.

The values above are taken from ChEMBL document CHEMBL4725286, “Synthesis and antibiofilm evaluation of 3-hydroxy-2,3-dihydroquinazolin-4(1H)-one derivatives against opportunistic pathogen Acinetobacter baumannii” (2020).
